This note sets out measurements from US10752596B2, “Nitrogen-containing heteroaryl compound and pharmaceutical use thereof” (JAPAN TOBACCO INC., priority 2017, dated 2020).

Each structure is given as a SMILES string.

Chain of human GLUT9 (Q9NRM0 other isoform, or with tags, fused parts or gaps): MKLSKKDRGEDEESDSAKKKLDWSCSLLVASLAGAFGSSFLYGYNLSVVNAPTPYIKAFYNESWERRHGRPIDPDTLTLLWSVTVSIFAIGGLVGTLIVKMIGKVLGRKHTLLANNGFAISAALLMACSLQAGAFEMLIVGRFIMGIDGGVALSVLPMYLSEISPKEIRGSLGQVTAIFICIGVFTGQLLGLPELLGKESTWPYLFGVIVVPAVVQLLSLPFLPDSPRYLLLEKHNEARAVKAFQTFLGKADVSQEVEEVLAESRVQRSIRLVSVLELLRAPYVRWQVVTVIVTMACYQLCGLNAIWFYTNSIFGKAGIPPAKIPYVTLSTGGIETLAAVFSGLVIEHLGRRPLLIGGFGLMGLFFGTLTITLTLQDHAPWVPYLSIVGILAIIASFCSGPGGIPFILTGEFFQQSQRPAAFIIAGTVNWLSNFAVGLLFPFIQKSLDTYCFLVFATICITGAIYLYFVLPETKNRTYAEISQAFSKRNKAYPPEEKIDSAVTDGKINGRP

In the assay the target is human GLUT9 (Homo sapiens (Human), UniProt Q9NRM0). The assay is described as follows: Evaluation of human GLUT9 inhibitory activity ([14C] uric acid uptake in human GLUT9 expressing HEK293T cells transduced with Uricase/Hyper). Conditions: final 300 μM uric acid, 6 min, human GLUT9 stably expressing HEK293T cells, read-out: humans GLUT9 inhibitory activity (IC50 value (μM)). The assay is classed as cell-based. How it is done:
A method for measuring GLUT9 inhibitory activity using human GLUT9 expressing cells transduced with Uricase/Hyper is shown hereinafter. GLUT9 inhibitory activity ([…]) of the test compound was calculated based on the intracellular uptake amount of labeled uric acid ([^14C] uric acid) transported by GLUT9.
1. Preparation of Human GLUT9 Expression Plasmid
Human GLUT9S coding region (NM_001001290.1) was amplified by PCR method using PrimeSTAR MAX DNA Polymerase (Takara Bio). The obtained PCR product was subjected to agarose gel electrophoresis, and the desired size of PCR product was purified by QIAquick Gel Extraction Kit (QIAGEN). Next, pEBMulti-Bsd vector (Wako Pure Chemical Industries, Ltd.) was subjected to digestion using restriction enzymes SalI and EcoR V, and linked to the PCR product containing GLUT9S by In-Fusion reaction using In-Fusion HD Cloning Kit (Takara Bio). XL10-Gold Competent Cells (Agilent Technologies) were transformed in In-Fusion reaction solution, and the obtained transfectants were cultured with shaking overnight in LB medium to which Blasticidin S HCl (Thermo Fisher Scientific) was added. Human GLUT9 expression plasmid DNA was prepared from the collected transfectants using EndoFree Plasmid Kit (Takara Bio).
2. Establish of Human GLUT9 Stably Expressing Cell
HEK293T cells (American Type Culture Collection, DS Pharma Biomedical) were seeded in a 6 well plate at 1×10^6 cells/well. Next day, human GLUT9 expression plasmid was transfected by using Lipofectamine 3000 Reagent (Thermo Fisher Scientific) as follows. Lipofectamine 3000 Reagent (5 μL) was diluted with Opti-MEM (125 μL, Thermo Fisher Scientific). Separately, plasmid DNA (2.5 μg) was diluted with Opti-MEM (125 μL), and P3000 Reagent (5 μL) was added thereto. The obtained solution was mixed with the previously obtained diluted solution, and the mixture was left stand at room temperature for 5 min, and added to the cells. Next day, the transfected cells were diluted and reseeded in a 6 well plate at 4×10^5 cells/well, and drug selection was performed in the presence of 30 μg/mL of Blasticidin S HCl, and thereby, Blasticidin-resistant human GLUT9 stably expressing cell line was established. Mock cells were prepared by introducing pEBMulti-Bsd vector into HEK293T cells in a similar manner.
3. Preparation of Uricase/Hyper Expression Plasmid
Uricase/Hyper expression plasmid was prepared by linking the coding regions of Aspergillus Flavus-derived uricase gene and pHyPer-Cyto vector (Evrogen) HyPer gene to the pEBMulti-Hyg vector (Wako Pure Chemical Industries, Ltd.) and then introducing it. The preparation method was performed by reference to Gout and Nucleic Acid Metabolism 2013, 37(2), 93-101, and seven repeated linker sequence of glycine-glycine-glycine-serine was prepared herein.
4. Preparation of Human GLUT9-Uricase/Hyper Coexpressing Cell
Human GLUT9 stably expressing cells were seeded at 3.6×10^7 cells per 225 cm^2 flask. Next day, Uricase/Hyper expression plasmid was transfected by using Lipofectamine 3000 Reagent as follows. Lipofectamine 3000 Reagent (40 μL) was diluted with Opti-MEM (750 μL). Separately, plasmid DNA (20 μg) was diluted with Opti-MEM (750 μL), and P3000 Reagent (40 μL) was added thereto. The obtained solution was mixed with the previously obtained diluted solution, and the mixture was left stand at room temperature for 5 min, and added to the cells. Next day, transfected cells were collected to prepare human GLUT9-Uricase/Hyper coexpressing cells.
5. Evaluation of GLUT9 Inhibitory Activity
Uricase/Hyper transiently-transfected human GLUT9 stably expressing cells or mock cells (blank) were seeded in a 96 well plate (Corning) at 1.6×10^5 cells/well, and cultured overnight at 37° C., 5% CO2. D-MEM/high glucose (Wako Pure Chemical Industries, Ltd.) containing 10% Fetal Bovine Serum (Lifetechnology) and 100 units/ml penicillin/100 μg/ml streptomycin (GIBCO) was used as a medium.
In the case of `COCCCCc1cnc(-c2cc(F)c(OC)c(F)c2)c(-c2ccc(C(=O)O)c(Cl)c2)n1` [Example 136], the IC50 was found to be 0.25 µM. For `CCOCCc1cnc(-c2ccc(OC)cc2)c(-c2ccc(C(=O)O)c(C)c2)c1` [Example 137], the IC50 worked out at 0.0917 µM. On to `CCOCCc1cnc(-c2ccc(OC)cc2)c(-c2ccc(C(=O)O)c(Cl)c2)c1` [Example 138], for which the half-maximal inhibitory concentration (IC50) turned out to be 0.499 µM. On to `CCOCCc1cnc(-c2ccc(OC)cc2)c(-c2ccc(CCC(=O)O)cc2)c1` [Example 139], for which the IC50 came to 0.167 µM. As for `CCOCCc1cnc(-c2cc(F)c(OC)c(F)c2)c(-c2ccc(C(=O)O)cc2)c1` [Example 140], the concentration for half-maximal inhibition (IC50) was 0.0713 µM.

For the compound `CCOCCc1cnc(-c2cc(F)c(OC)c(F)c2)c(-c2ccc(C(=O)O)c(C)c2)c1` [Example 141], the half-maximal inhibitory concentration (IC50) stood at 0.0639 µM. To `CCOCCc1cnc(-c2cc(F)c(OC)c(F)c2)c(-c2ccc(C(=O)O)c(Cl)c2)c1` [Example 142] belongs 0.226 µM; to `CCCOCc1cnc(-c2ccc(OC)cc2)c(-c2ccc(C(=O)O)c(C)c2)c1` [Example 143], 0.125 µM; to `CCCOCc1cnc(-c2cc(F)c(OC)c(F)c2)c(-c2ccc(CCC(=O)O)cc2)c1` [Example 146], 0.139 µM. Regarding `CCCOCc1cnc(-c2cc(F)c(OC)c(F)c2)c(-c2ccc(C(=O)O)c(C)c2)c1` [Example 147], the IC50 was 0.0868 µM. Take `COCCCCc1cnc(-c2cc(F)c(OC)c(F)c2)c(-c2ccc(CCC(=O)O)cc2)n1` [Example 148]: the IC50 is 0.0807 µM. For `COc1c(F)cc(-c2ncc(CC(C)C)nc2-c2ccc(C(=O)O)c(C)c2)cc1F` [Example 149], the IC50 was 0.0574 µM. With `COc1c(F)cc(-c2ncc(CC(C)C)nc2-c2ccc(CCC(=O)O)cc2)cc1F` [Example 150], the 50% inhibitory concentration (IC50) was determined as 0.102 µM. On to `COc1c(F)cc(-c2ncc(CC(C)C)nc2-c2ccc(C(=O)O)c(Cl)c2)cc1F` [Example 151], for which the 50% inhibitory concentration (IC50) was determined as 0.106 µM. On to `CCCCc1cnc(-c2cc(F)c(OC)c(F)c2)c(-c2ccc(C(=O)O)c(C)c2)n1` [Example 152], for which the IC50 amounted to 0.059 µM. With `CCCCc1cnc(-c2cc(F)c(OC)c(F)c2)c(-c2ccc(CCC(=O)O)cc2)n1` [Example 153] the figure was 0.102 µM.

A word on the IC50: it is the concentration that inhibits the measured activity by half.
